# Test results as given in article PMC7719179, “Small molecule inhibition of Dynamin-dependent endocytosis targets multiple niche signals and impairs leukemia stem cells” (Nature Communications, 2020).
# Where “and” joins values, the source holds several entries; their conditions need not be identical. Equal values may be shown once.
# Legend:
# [1] = test system: Notch1 and Hes1 in Lmo2-transgenic DN3a thymocytes; assay: Surface Notch1 and intracellular Hes1 in Lmo2^Tg DN3a thymocytes on OP9-DL1; type: cell-based, mouse; conditions: Lmo2-transgenic DN3a thymocytes on OP9-DL1 overnight, 0.2 μM Dynole 34-2
# Method: Phosphoflow analysis was performed as previously described. Briefly, 2 × 10^6 cells stained for surface markers were subsequently resuspended into PBS 1× + 4% v/v paraformaldehyde and incubated for 10 min at 4 °C for fixation. Fixed cells were washed twice using PBS 1×, then resuspended in pre-chilled at −20 °C Perm Buffer III (BD Pharmingen) and incubated 30 min at 4 °C for permeabilization. Cells were washed twice using PBS 1× and incubated overnight at 4 °C in PBS 1× + 2% v/v fetal calf serum (FCS) with Cell Signalling purified antibodies (Genesearch Pty Ltd, Arundel QLD, Australia) against pSTAT5 (Tyr694; #9359), phospho-p38 MAPK (Thr180/Tyr182; #4511), phospho-p44/42 (Erk1/2; #9102), phospho-S6 (Ser235/236; #4856) and phospho-Akt (Ser473; #9271) or isotype control. […] Fluorescence-activated cell sorting (FACS) analysis was performed using LSRII and LSR Fortessa cytometers, following the gating strategies described in Supplementary Fig. 11. […]
# For in vitro NOTCH1 signalling activation assays, cells were seeded on OP9 and OP9-DL1 stromal cell lines as described in the co-culture assays section and incubated overnight with either Dynole 34-2 or Ruxolitinib or DAPT resuspended in DMSO. […] Cells were washed twice, fixed and analysed for intracellular HES1 detection by flow cytometry as described in the FACS analysis section. […]
# [2] = test system: normal hematopoietic cells of WT mice; assay: Normal hematopoiesis in treated wild-type mice (thymus and bone marrow populations); type: in vivo
# [3] = test system: DN3a T-cell progenitors of Lmo2^Tg mice; assay: Thymocyte populations (DN3a, DN1-DN4) in the thymus of treated Lmo2^Tg mice; type: in vivo, mouse
# Method: The synthesis of Dynole 34-2 and Dyngo 4a compounds was performed as previously described[32],[33] and was kindly provided by A. McCluskey. For in vitro assays, the specific Dynamin inhibitors Dynole 34-2, Dyngo 4a and Dynasore (#S8047, Selleckchem, Sapphire Bioscience Pty Ltd, Redfern NSW, Australia) were made as stock solutions in 100% dimethyl sulfoxide (DMSO), which were stored frozen. These compounds were diluted in 50% v/v DMSO/20 mM Tris-HCl pH 7.4 immediately prior to use. For in vivo administration, Dynole 34-2 was resuspended in pre-warmed HRC#5 (Pharmatek, San Diego CA, USA) 1 : 9 phosphate-buffered saline (PBS) 1× pH 7.4 at 37 °C, and sonicated 10 times for 30 s using a Bioruptor Plus (Biogenode) immediately prior to injection at 30 mg/kg, twice daily.
# Flow cytometry analyses were performed as previously described[10],[86] on single-cell suspensions stained using BD Pharmingen antibodies (BD Australia, North Ryde NSW, Australia) against mouse CD4 (RM4-5), CD8 (53-6.7), CD25 (PC61.5), CD44 (IM7), CD45.1 (A20), CD45.2 (104), Thy1.2 (53-2.1; #561616), TCRβ (H57-597), CD117 (ACK45), CD135 (A2F10.1), CD150 (TC15-12F12.2; #562373), B220 (RA3-6B2; #563708), CD3 (145-2C11; #563004), CD19 (ID3; #557655), Gr-1 (RB6-8C5; #563299 and #565033), CD11b (M1/70; #563015 and #560455), Ter119 (Ter119; #565523 and #557909), Sca-1 (D7; #558160) and an eBioscience antibody (eBioscience, Invitrogen) against mouse NOTCH1 (22E5). DN3 populations and IL-7R were stained using BioLegend antibodies (Australian Biosearch, Balcatta WA, Australia) against mouse CD28 (E18) and CD127 (A7R34), respectively. Apoptosis was measured using an antibody against AnnexinV (#556420, BD Australia) and the […] Sytox Blue (BD Australia) following the manufacturer’s protocol.
# All experiments were pre-approved by the AMREP Animal Ethics Committee. The current study was performed by using the previously described CD2-Lmo2 (Lmo2^Tg) mouse model. Mice cohorts were generated by cross-breeding with the Lck-Notch1-IC9 (N1-ICD^Tg)[45] generously given by T. Hoang[86], the Lck-STAT5b-CA (STAT5-CA^Tg)[88] kindly given by M.P. McCormack, the Mx1-Cre transgenic (Mx)[89] and the ROSA26-YFP Cre-reporter (YFP)[90] mouse strains. All mouse lines were backcrossed onto a C57BL/6J background for ten generations and maintained in pathogen-free conditions according to institutional animal care guidelines.
# [4] = thymus of treated Lmo2^Tg mice, absolute numbers vs vehicle (response to reviewers)
# [5] = thymus of treated Lmo2^Tg mice, individual mice
compound,measurement,setting,value
"CCCCCCCCNC(=O)C(C#N)=Cc1cn(CCCN(C)C)c2ccccc12 [Dynole 34-2, 2-Cyano-N-octyl-3-(1-(3-dimethylaminopropyl)-1H-indol-3-yl)-acrylamide]",Hes1 (MFI),[1],18345 MFI and 12543 MFI and 14751 MFI and 12961 MFI
same,Notch1 (MFI),[1],16352 MFI and 11570 MFI and 16901 MFI and 11730 MFI
same,Absolute numbers in the thymus: DN,[2]; Supplementary Figure 5a-b,6020000 and 5580000 and 7110000
same,Absolute numbers in the thymus: DN1,[2]; Supplementary Figure 5a-b,511000 and 452000 and 707000
same,Absolute numbers in the thymus: DN2,[2]; Supplementary Figure 5a-b,47600 and 47100 and 78500
same,Absolute numbers in the thymus: DN4,[2]; Supplementary Figure 5a-b,3000000 and 2950000 and 3730000
same,Absolute numbers in the thymus: DP,[2]; Supplementary Figure 5a-b,102000000 and 86500000 and 114000000
same,Absolute numbers in the thymus: SP,[2]; Supplementary Figure 5a-b,11300000 and 9900000 and 12100000
same,Absolute numbers in the bone marrow: B cells,[2]; Supplementary Figure 5c-d,6210000 and 6630000 and 5010000
same,Absolute numbers in the bone marrow: MPP2,[2]; Supplementary Figure 5c-d,32800 and 19900 and 19000
same,Absolute numbers in the bone marrow: MPP3,[2]; Supplementary Figure 5c-d,31000 and 22000 and 23000
same,Absolute numbers in the bone marrow: MPP4,[2]; Supplementary Figure 5c-d,146000 and 93900 and 87200
same,Absolute numbers in the bone marrow: Myeloid cells,[2]; Supplementary Figure 5c-d,9680000 and 8860000 and 9360000
same,Absolute numbers in the bone marrow: T cells,[2]; Supplementary Figure 5c-d,1060000 and 911000 and 1020000
same,effect on differentiated and progenitor cells in thymus and bone marrow,"[2]; non-tumour-bearing mice, result in words",no detrimental effect
same,reduction in the numbers of DN3a thymocytes,"[3]; Lmo2^Tg mice at end of treatment, vs vehicle, in words",tenfold reduction
same,Absolute numbers DN3a cells,"[3]; thymus of 6-week-old Lmo2^Tg mice after two rounds of treatment, individual animals (Fig 4a)",1380000 and 2260000 and 730000 and 1690000 and 1100000
same,Absolute numbers DN3a cells,"[3]; thymus of 6-week-old Lmo2^Tg mice, 30 mg/kg i.p. twice daily, 5 days on 2 consecutive weeks, individual animals (Fig 3a), 30 mg/kg",197000 and 290000 and 173000 and 171000 and 222000 and 359000
same,"decrease in DN3a thymocytes when combined with VXL, as compared to VXL alone",[3]; thymus of treated Lmo2^Tg mice (response to reviewers),75%
same,decrease in DN1 cells,[3]; [4],56%
same,decrease in DN2 cells,[3]; [4],45%
same,decrease in DN3a cells,[3]; [4],64%
same,increase in DN4 cells,[3]; [4],134%
same,"Proportion of DN cells (% DN), DN1",[3]; [5],1.8 % DN and 1.3 % DN and 3.9 % DN and 6.4 % DN and 2.8 % DN
same,"Proportion of DN cells (% DN), DN2",[3]; [5],1 % DN and 0.2 % DN and 0.4 % DN and 0.1 % DN and 0.5 % DN
same,"Proportion of DN cells (% DN), DN3",[3]; [5],18.3 % DN and 14.1 % DN and 34.4 % DN and 43.5 % DN and 16.6 % DN
same,"Proportion of DN cells (% DN), DN4",[3]; [5],79.5 % DN and 84.5 % DN and 61.1 % DN and 49.1 % DN and 80.5 % DN
